# Measurements: patent publication US20250195491A1 (AEVIS BIO, INC., priority 2022, published 2025)
# Tests used:
# Aiolos and Ikaros = Aiolos and Ikaros degradation by immunoblotting in MM.1S cells; format: cell-based, human; details: immunoblot
# Protocol: To this end, the MM.1S cell line was cultured in an RPMI medium (Corning, MD, USA) supplemented with 10% fetal bovine serum (Corning, MD, USA), 100 U/mL of penicillin (Corning, MD, USA), and 100 μg/mL of streptomycin (Corning, MD, USA) at 37° C. in a 5% CO2 incubator. […] The cells were disrupted by adding a RIPA buffer containing a protease inhibitor cocktail (Thermo Fisher Scientific) and centrifuged at 14,000 rpm for 15 minutes at 4° C. to obtain a cell extract. Equal amounts of the cell extract were loaded, and proteins were separated through SDS-PAGE and then transferred to a PVDF membrane. The protein-transferred membrane was blocked using skim milk, incubated with a primary antibody for 3 hours at room temperature, and then incubated with an HRP-conjugated secondary antibody for 1 hour at room temperature. The resulting product was washed with TBS-T three times between steps. Detection was performed using a chemoluminescence reagent (Thermo Fisher Scientific), and confirmed using Chemidoc (iBright CL1500, Invitrogen, CA, USA). Aiolos (#15103), Ikaros (#9034) and GAPDH (#2118S) antibodies used as primary antibodies and a secondary antibody were purchased from Cell Signaling Technology (Danvers, MA, USA).
# Additionally, the expression of Aiolos and Ikaros, mediated by 3-MP, was confirmed over time. […]
# TNF-α, IL-1β, and IL-6 = experiment: Pro-inflammatory cytokine mRNA (RT-PCR) in LPS-stimulated BV-2 cells; format: cell-based, mouse; details: BV-2, 30, 10, or 3.33 μM, LPS 1 μg/mL 6 hours, FIG. 5B
# Protocol: (§1) BV-2 was plated in a 6-well plate (Corning, MD, USA) at 5×10^5 cells/well, and cultured using a DMEM medium (Corning, MD, USA) containing 10% fetal bovine serum (Corning, MD, USA) and 100 U/mL of penicillin/streptomycin (Corning, MD, USA) at 37° C. in a 5% CO2 incubator for one day for stabilization. […] 1 μg/mL of LPS (Sigma, USA) was added to all experimental groups excluding the non-inflammation-induced group and allowed to react at 37° C. in a 5% CO2 incubator for 6 hours.
# The drug-treated BV-2 underwent RNA prep according to kit manual using an RNA prep kit (Monarch Total RNA Miniprep kit, NEB, UK), and the concentration was measured using a nanophotometer (NP80, Implen, Germany). According to the concentration of each RNA sample, 1 μg of RNA was added and cDNA was synthesized according to the manual of the cDNA synthesis kit (LunaScript RT SuperMix kit, NEB, UK).
# (§2) The expression level of each cytokine in the synthesized cDNA was analyzed and compared using Real-Time PCR (StepOne™Bioscience, USA) equipment. […] The Cr value for the gene of each sample obtained through real-time PCR was normalized by the value of the internal control gene (GAPDH) of each sample, the expression level was estimated inversely by 2ΔΔCT calculation, and the resulting value of each group was quantified and expressed as a percentage relative to the LPS-only treatment group.
# iNOS and COX-2 = iNOS and COX-2 mRNA (RT-PCR) in LPS-stimulated BV-2 cells; format: cell-based, mouse; details: BV-2, 30, 10, or 3.33 μM, LPS 1 μg/mL 6 hours, FIG. 6D
# Protocol: as §1, with “Finally, to determine the mRNA expression levels of iNOS and COX-2, BV-2” for “BV-2”, “seeded” for “plated”
# The drug-treated BV-2 underwent RNA prep according to the kit manual using an RNA prep kit (Monarch Total RNA Miniprep kit, NEB, UK), and the concentration was measured using a nanophotometer (NP80, Implen, Germany). […]
# as §2, with “oxidative stress-associated gene” for “cytokine”
compound,measurement,setting,value
"Nc1cccc2c1C(=S)N(C1CCC(=O)NC1=O)C2=O (stereo not shown) [3-MP, 3-thiopomalidomide]",expression of Aiolos and Ikaros over time,"Aiolos and Ikaros; 10 μM, 1, 4, 8, 12, or 24 hours, FIG. 3B",does not reduce the expression of Aiolos and Ikaros
same,"expression of Aiolos and Ikaros, by concentration","Aiolos and Ikaros; 0.000128-10 μM, 4 hours, FIG. 3A",does not reduce the expression of Aiolos and Ikaros
same,pro-inflammatory cytokine inhibition effect (mRNA),"TNF-α, IL-1β, and IL-6",higher pro-inflammatory cytokine inhibition effect than pomalidomide
same,mRNA expression of oxidative stress-associated genes (iNOS and COX-2),iNOS and COX-2,can effectively inhibit the mRNA expression of an oxidative stress-associated gene
